The source of these data is patent publication US6482413B1, “Vitamin B12 —biodegradable micro particulate conjugate carrier systems for peroral delivery of drugs, therapeutic peptides/proteins and vaccines” (Council of Scientific and Industrial Research, priority 2001, dated 2002).

For one series, the system named is VB12 transport system. The conditions noted are these: oral uptake capacity; cited from earlier work.
A further series relates to intestinal enzymes. Conditions: FIG. 3; same experimental conditions for free and entrapped insulin.
Series [1] deals with Streptozotocin induced diabetic rats. Briefly: Antidiabetic activity of orally administered insulin loaded delivery systems. The format is in vivo, rat. As for the experimental part:
The pharmacological availability was assessed by the above results.
Various insulin loaded drug delivery systems prepared were tested for antidiabetic activity in Streptozotocin induced diabetic rats and the results are briefed in summary section. These insulin drug delivery systems are orally administered to diabetic rats (n=number of animals). At various time intervals after feeding the rats were bled and their blood glucose levels determined.

In the next series the target is IF (Homo sapiens, UniProt P27352). Conditions: among b, d and e monocarboxylate isomers; cited from earlier work.
Chain of IF (P27352 19-417): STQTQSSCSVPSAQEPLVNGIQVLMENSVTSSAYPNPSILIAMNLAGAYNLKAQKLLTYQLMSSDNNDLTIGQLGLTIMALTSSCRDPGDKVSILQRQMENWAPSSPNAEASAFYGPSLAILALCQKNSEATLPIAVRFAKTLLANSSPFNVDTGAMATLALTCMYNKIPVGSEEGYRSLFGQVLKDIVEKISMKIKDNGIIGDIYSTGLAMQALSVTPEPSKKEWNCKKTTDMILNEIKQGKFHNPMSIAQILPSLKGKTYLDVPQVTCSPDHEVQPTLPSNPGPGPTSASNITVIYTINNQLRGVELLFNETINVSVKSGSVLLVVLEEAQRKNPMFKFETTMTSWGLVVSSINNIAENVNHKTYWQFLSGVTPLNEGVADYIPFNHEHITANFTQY

For Vitamin B12 [VB12], the “uptake of VB12” value in the series on VB12 transport system was 1 nmol/dose.
For the substance insulin, in the series with intestinal enzymes, the “Degradation of insulin by digestive enzymes” value is listed as “completely degraded”. Further, the “activity at 3rd, 4th, 5th and 6th hours” value in series [1] was “no activity”.
With “‘e’ monocarboxylate of VB12 [Conjugate 1b]”, the “affinity for IF” value at IF is given as “highest affinity”.
